Drawing on patent US20160039880A1 (priority 2012, published 2016), this text covers Ki and solubility for 11 compounds.

Data set [1] concerns the target Human recombinant cyclophilin A (Cyp A) (Homo sapiens, UniProt P62937). Briefly: Protease-free PPIase assay.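 Note: cis to trans isomerization of SUC-AAPF-pNA by 2 nM enzyme, read as absorbance at 330 nm over 300 s at 10 °C, catalytic rate corrected for uncatalyzed background.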
A short description of data set [2]: Water Solubility Assay (measured in pH 7.8 buffer).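 Note: precipitation onset detected as rise in absorbance at 650 nm across increasing concentrations, after shaking for 18 h, blank wells receiving DMSO only.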 To be noted: kinetic from dmso stock. The data set is classed as physicochemical.
Where [3] appears, read: 35 mM HEPES buffer pH 7.8, 25 °C, aqueous buffer, pH 7.8 buffer, read-out: Water Solubility Assay.

Values after ≈ are worked out from the molar mass of the structure shown. Read-outs that look alike come from different tables or passages of the source.

Human recombinant cyclophilin A (Cyp A), sequence (P62937 whole entry): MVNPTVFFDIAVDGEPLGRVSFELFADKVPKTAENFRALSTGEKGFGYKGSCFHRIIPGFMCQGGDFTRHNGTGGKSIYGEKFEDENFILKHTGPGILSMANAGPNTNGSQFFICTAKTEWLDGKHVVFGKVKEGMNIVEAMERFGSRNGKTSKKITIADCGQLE

The term Ki denotes the equilibrium dissociation constant of an inhibitor or competing ligand from its target. As a reminder, the solubility is how much of the substance goes into solution per volume. Regarding `CC[C@H]1NC(=O)[C@@H]([C@H](O)[C@H](C)CCN2CCOC[C@@H]2C)N(C)C(=O)[C@@H](C(C)C)N(C)C(=O)[C@@H](CC(C)C)N(C)C(=O)[C@@H](CC(C)C)N(C)C(=O)[C@H](C)NC(=O)[C@@H](C)NC(=O)C(CC(C)C)N(C)C(=O)[C@@H](C(C)C)NC(=O)[C@H](CC(C)C)N(C)C(=O)[C@@H](C)N(C)C1=O` (stereo partly drawn) [Compound DW, [(3R,4R,5S)-4-Hydroxy-3-methyl-5-(methylamino)-1-((S)-3-methyl-morpholin-4-yl)-hexanoic acid]^1[(R)-methyl-Sar]^3 cyclosporin A], the Ki in data set [1] was determined as 6.5 nM. The compound further returned a solubility at 18 h in data set [2] (25 °C, pH 7.8, aqueous buffer) greater than 100 µM.
Regarding `CC[C@H]1NC(=O)[C@@H]([C@H](O)[C@H](C)CCN(C)Cc2cnccn2)N(C)C(=O)[C@@H](C(C)C)N(C)C(=O)[C@@H](CC(C)C)N(C)C(=O)[C@@H](CC(C)C)N(C)C(=O)[C@H](C)NC(=O)[C@@H](C)NC(=O)[C@@H](CC(C)C)N(C)C(=O)[C@@H](C(C)C)NC(=O)[C@H](CC(C)C)N(C)C(=O)[C@@H](C)N(C)C1=O` [Compound DH, [(3R,4R,5S)-4-Hydroxy-3-methyl-5-(methylamino)-1-({pyrazin-2-ylmethyl}-methylamino)-hexanoic acid]^1[(R)-methyl-Sar]^3 cyclosporin A], the Ki in data set [1] turned out to be 9.1 nM. For the same compound, the solubility at 18 h in data set [2] (setting [3]) is greater than 100 µM.
Take `CC[C@H]1NC(=O)[C@@H]([C@H](O)[C@H](C)CCN(C)CC(C)C#N)N(C)C(=O)[C@@H](C(C)C)N(C)C(=O)[C@@H](CC(C)C)N(C)C(=O)[C@@H](CC(C)C)N(C)C(=O)[C@H](C)NC(=O)[C@@H](C)NC(=O)[C@@H](CC(C)C)N(C)C(=O)[C@@H](C(C)C)NC(=O)[C@H](CC(C)C)N(C)C(=O)[C@@H](C)N(C)C1=O` (stereo partly drawn) [Compound DK, [(3R,4R,5S)-1-({2-Cyano-propyl}-methyl-amino)-4-hydroxy-3-methyl-5-(methylamino)-hexanoic acid]^1[(R)-methyl-Sar]^3 cyclosporin A]: in data set [1], the Ki was 13 nM. Further, the solubility at 18 h in data set [2] (25 °C, pH 7.8, aqueous buffer) is greater than 100 µM.
`CC[C@H]1NC(=O)[C@@H]([C@H](O)[C@H](C)CCN2CCn3cnnc3C2)N(C)C(=O)[C@@H](C(C)C)N(C)C(=O)[C@@H](CC(C)C)N(C)C(=O)[C@@H](CC(C)C)N(C)C(=O)[C@H](C)NC(=O)[C@@H](C)NC(=O)C(CC(C)C)N(C)C(=O)[C@@H](C(C)C)NC(=O)[C@H](CC(C)C)N(C)C(=O)[C@@H](C)N(C)C1=O` (stereo partly drawn) [Compound DU, [(3R,4R,5S)-1-(5,6-Dihydro-8H-[1,2,4]triazolo[4,3-a]pyrazin-7-yl)-4-Hydroxy-3-methyl-5-(methylamino)-hexanoic acid]^1[(R)-methyl-Sar]^3 cyclosporin A]: the Ki in data set [1] came to 9.2 nM. Besides, the solubility at 18 h in data set [2] (setting [3]) was greater than 100 µM.
Consider `CC[C@H]1NC(=O)[C@@H]([C@H](O)[C@H](C)CCN2CCOc3ccccc32)N(C)C(=O)[C@@H](C(C)C)N(C)C(=O)[C@@H](CC(C)C)N(C)C(=O)[C@@H](CC(C)C)N(C)C(=O)[C@H](C)NC(=O)[C@@H](C)NC(=O)C(CC(C)C)N(C)C(=O)[C@@H](C(C)C)NC(=O)[C@H](CC(C)C)N(C)C(=O)[C@@H](C)N(C)C1=O` (stereo partly drawn) [Compound DX, [(3R,4R,5S)-1-(2,3-Dihydro-benzo[1,4]oxazin-4-yl)-4-Hydroxy-3-methyl-5-(methylamino)-hexanoic acid]^1[(R)-methyl-Sar]^3 cyclosporin A], for which the Ki in data set [1] was 5.2 nM. Moreover, the solubility at 18 h in data set [2] (setting [3]) lay within 25 to 50 µM (≈ 33.1 to 66.2 µg/mL).
As to `CC[C@H]1NC(=O)[C@@H]([C@H](O)[C@H](C)CCN(C)CCS(N)(=O)=O)N(C)C(=O)[C@@H](C(C)C)N(C)C(=O)[C@@H](CC(C)C)N(C)C(=O)[C@@H](CC(C)C)N(C)C(=O)[C@H](C)NC(=O)[C@@H](C)NC(=O)[C@@H](CC(C)C)N(C)C(=O)[C@@H](C(C)C)NC(=O)[C@H](CC(C)C)N(C)C(=O)[C@@H](C)N(C)C1=O` [Compound DE], the Ki in data set [1] turned out to be 5.8 nM. In addition, the solubility at 18 h in data set [2] (25 °C, pH 7.8, aqueous buffer) is greater than 100 µM.
For `CC[C@H]1NC(=O)[C@@H]([C@H](O)[C@H](C)CCN2CCOC(C)(C)C2)N(C)C(=O)[C@@H](C(C)C)N(C)C(=O)[C@@H](CC(C)C)N(C)C(=O)[C@@H](CC(C)C)N(C)C(=O)[C@H](C)NC(=O)[C@@H](C)NC(=O)C(CC(C)C)N(C)C(=O)[C@@H](C(C)C)NC(=O)[C@H](CC(C)C)N(C)C(=O)[C@@H](C)N(C)C1=O` (stereo partly drawn) [Compound DS, [(3R,4R,5S)-1-(3,3-Dimethyl-morpholin-4-yl)-4-hydroxy-3-methyl-5-(methylamino)-hexanoic acid]^1[(R)-methyl-Sar]^3 cyclosporin A], in that order: 12 nM and 75 to 100 µM (≈ 97.8 to 130 µg/mL).
For `CC[C@H]1NC(=O)[C@@H]([C@H](O)[C@H](C)CCN(C)c2ccccc2)N(C)C(=O)[C@@H](C(C)C)N(C)C(=O)[C@@H](CC(C)C)N(C)C(=O)[C@@H](CC(C)C)N(C)C(=O)[C@H](C)NC(=O)[C@@H](C)NC(=O)[C@@H](CC(C)C)N(C)C(=O)[C@@H](C(C)C)NC(=O)[C@H](CC(C)C)N(C)C(=O)[C@@H](C)N(C)C1=O` [Compound DC, [(3R,4R,5S)-4-Hydroxy-3-methyl-5-(methylamino)-1-(methyl-phenyl-amino)-hexanoic acid]^1[(R)-methyl-Sar]^3 cyclosporin A], in data set [1], the Ki is 6 nM. The compound further showed a solubility at 18 h in data set [2] (25 °C, pH 7.8, aqueous buffer) of 10 to 25 µM (≈ 13 to 32.4 µg/mL).
In the same order, the values of `CC[C@H]1NC(=O)[C@@H]([C@H](O)[C@H](C)CCN(C)c2ccccn2)N(C)C(=O)[C@@H](C(C)C)N(C)C(=O)[C@@H](CC(C)C)N(C)C(=O)[C@@H](CC(C)C)N(C)C(=O)[C@H](C)NC(=O)[C@@H](C)NC(=O)[C@@H](CC(C)C)N(C)C(=O)[C@@H](C(C)C)NC(=O)[C@H](CC(C)C)N(C)C(=O)[C@@H](C)N(C)C1=O` [Compound DD, [(3R,4R,5S)-4-Hydroxy-3-methyl-5-(methylamino)-1-(methyl-pyridin-2-yl-amino)-hexanoic acid]^1[(R)-methyl-Sar]^3 cyclosporin A] are 4.8 nM and 25 to 50 µM (≈ 32.4 to 64.8 µg/mL).
For `CC[C@H]1NC(=O)[C@@H]([C@H](O)[C@H](C)CCN(C)Cc2cncn2C)N(C)C(=O)[C@@H](C(C)C)N(C)C(=O)[C@@H](CC(C)C)N(C)C(=O)[C@@H](CC(C)C)N(C)C(=O)[C@H](C)NC(=O)[C@@H](C)NC(=O)[C@@H](CC(C)C)N(C)C(=O)[C@@H](C(C)C)NC(=O)[C@H](CC(C)C)N(C)C(=O)[C@@H](C)N(C)C1=O` [Compound DI, [(3R,4R,5S)-4-Hydroxy-3-methyl-5-(methylamino)-1-({3-methyl-3H-imidazol-4-ylmethyl}-methylamino)-hexanoic acid]^1[(R)-methyl-Sar]^3 cyclosporin A], in data set [1], the Ki came to 4.3 nM. Besides, the solubility at 18 h in data set [2] (setting [3]) is greater than 100 µM.
In the case of `CC[C@H]1NC(=O)[C@@H]([C@H](O)[C@H](C)CCCCCNCCOC)N(C)C(=O)[C@@H](C(C)C)N(C)C(=O)[C@@H](CC(C)C)N(C)C(=O)[C@@H](CC(C)C)N(C)C(=O)[C@H](C)NC(=O)[C@@H](C)NC(=O)[C@@H](CC(C)C)N(C)C(=O)[C@@H](C(C)C)NC(=O)[C@H](CC(C)C)N(C)C(=O)[C@@H](C)N(C)C1=O` [Compound AI, [(6R,7R,8S)-7-Hydroxy-6-methyl-8-(methylamino)-1-N-(2-methoxy)ethylamino-nonanoic acid]^1[(R)-methyl-Sar]^3 cyclosporin A], the Ki in data set [1] amounted to 3.3 nM. For the same compound, the solubility at 18 h in data set [2] (25 °C, pH 7.8, aqueous buffer) is greater than 100 µM.
